Key:
pre-miR-21 BP RNA = assay: In vitro Dicer processing of pre-miR-21 BP; assay type: biochemical
Text: In vitro Dicer processing. […] Cleavage products were resolved on a denaturing 15% polyacrylamide gel, which was imaged using a Molecular Dynamics Typhoon phosphorimager and quantified with Bio-Rad's QuantityOne software, normalizing to full length RNA.

MDA-LM2 cells = assay: Boyden chamber invasion assay, MDA-LM2; assay type: cell-based; conditions: LNA-21 100 nM, 2 1000 nM
Method: Boyden Chamber Invasion Assay. The MDA-MB-231, MDA-LM2, A375, A549, or MCF-10a cells (5×10^4) were seeded into Hanging Cell Culture Inserts for 24 well plates with uncoated membranes with 8.0 μm pores (Millicell) in serum free growth media. A 3 mg/mL layer (100 μL) of Matrigel (Fisher Scientific: CB40234) diluted with serum free growth media was prepared inside of each membrane. Cells were cultured as described above, with or without compound treatment, and allowed to invade towards complete growth media in the bottom well for 16-24 h before ending the experiment by removing the media in the bottom wells and inserts. The hanging cell culture inserts and bottom wells were washed twice with 1×PBS, gently shaking to mix. Excess liquid and cells inside the insert were removed with cotton swabs, after which 400 μL of 4% paraformaldehyde was placed into the bottom well and incubated for 20 min at room temperature to fix the cells. […] Four different fields of view from each captured image were counted for crystal violet stained or unstained cells. Normalized cells invaded was calculated with equation 5 (Eq 5): […]
where stained cells represent cells counted with crystal violet stain observed in the compound treated or vehicle treated samples, respectively.

IFN-γ = IFN-γ ELISA of MDA-MB-231 supernatant; assay type: cell-based, human
Method: Measurement of IFN-γ: The MDA-MB-231 cells were plated into a 24-well plate and allowed to grow to 70% confluency. Cells were transfected with 2′-5′ A4 using Lipofectamine RNAiMAX (Life Technologies). Alternatively, MDA-MB-231 cells were mock transfected and treated with vehicle (DMSO) or 5 (5, 50, 500, 5000 nM). Cell culture supernatant was removed at 24 h. The Human IFN-γ ELISA Kit (Bon Opus Biosciences: BE010020) was used to measure interferon gamma levels from the supernatants, per the manufacturer's instructions.

pre-miR-21 = assay: Measurement of catalytic activity in MDA-MB-231 cells; assay type: cell-based, human
Method: Measurement of Catalytic Activity. The MDA-MB-231 cells were plated into a 24-well plates (Corning). At ˜80% confluency, the media was aspirated and the cell monolayer was washed with 1×DPBS. Cells were then incubated with 5 (500 nM) or vehicle (DMSO) diluted in cell culture medium for 24 h. Cells were then lysed using 250 μL of RNA Lysis Buffer from a Quick-RNA MiniPrep Kit (Zymo Research). A 100 μL aliquot was transferred to black, non-binding surface, half area 96-well plates (Corning). Fractions of untreated cell lysate were combined and used to generate a standard curve of 5 in cell lysate, by spiking in known concentrations of 5. Fluorescence intensity (Ex: 345 nm, Em: 460 nm) was then measured on a Molecular Devices SpectraMax M5 plate reader to determine compound concentration in cell lysate. Using the generated standard curve, the concentration of 5 in the […] cell lysate aliquot was then used to extrapolate the amount of 5 in pmol in the full 250 μL volume.
RNA was extracted from the cell lysates, followed by RT-qPCR as described above. A standard curve was generated for the pre-miR-21 WT transcript using in vitro transcribed pre-miR-21 (10 ng, 1 ng, 0.1 ng, 0.01 ng, 0.001 ng, 0.0001 ng, 0 ng) completed with each run to accurately calibrate Ct values. The amount of cleaved pre-miR-21 was then calculated by taking the difference between the pmol of pre-miR-21 in untreated samples and the pmol of pre-miR-21 in 5-treated samples. Catalytic activity, or turnover, was calculated by taking the ratio of the pmol of cleaved pre-miR-21 and the pmol of 5 in the sample.

[1] = tested on: Ifng, OAS1, RIG-I, MDA5 mRNAs; assay: RT-qPCR of antiviral innate immune response mRNAs in MDA-MB-231 cells; assay type: cell-based, human
Method: Cell culture compound treatment and transfection. For treatment with compounds, stocks in DMSO or water were diluted in growth media and added to cells for 24-72 h. For transfection of plasmid DNA to overexpress the miR-21 hairpin precursor in pcDNA3.1 (Addgene 21114) or pcDNA3-RNaseL (R. H. Silverman, Cleveland Clinic^24) in 24-well plates, Lipofectamine 2000 was used according to the manufacturer's protocol. After transfection, the medium was removed and replaced with growth medium containing compound prepared as described above. For transfection of a control (Santa Cruz Biotechnology: sc-37007) or RNase L targeting siRNA (Santa Cruz Biotechnology: sc-45965), Lipofectamine RNAiMAX Reagent was used for transfection of oligonucleotides, including 2′-5′ A4, according to the manufacturer's protocol.

MDA-MB-231-Luc cells = assay: In vivo MDA-MB-231 lung metastasis model in NOD/SCID mice; set-up: species or system mouse; conditions: 10 mg/kg; for lung nodules / metastasis to lung: 6 weeks
Method: FIGS. 46A-46C. In vivo mouse weights and Scrambled FISH staining of lung nodules with 5 treatment. […] Treatment of mice with 10 mg/kg of 5 started after 6 days of tumor cell injection. […] Dashed line indicates normalized signal intensity in vehicle samples.
Intravenous delivery of MDA-MB-231 cells to mice is a model of breast cancer metastasis and metastatic behavior can be affected by inhibition of miR-21, S. Yang, J. J. Zhang, X.-Y. Huang, Mouse models for tumor metastasis. Methods Mol. Biol. 928, 221-228 (2012).

SMILES | protection from Dicer processing (pre-miR-21 BP RNA) | effect on invasion (MDA-LM2 cells) | IFN-7 ELISA (IFN-γ) | Average pre-miR-21 (pre-miR-21; 500 nM, 24 h, MDA-MB-231, mean ± s.d. (n = 6)) | Cleaved pre-miR-21 (pre-miR-21; 500 nM, 24 h, difference untreated minus treated, mean ± s.d.) | Turnovers (pre-miR-21; 500 nM, 24 h, ratio Cleaved pre-miR-21 / 5 Detected, mean ± s.d.) | moles of pre-miR-21 cleaved by one mole of compound (pre-miR-21; MDA-MB-231) | levels of mRNAs associated with the antiviral innate immune response ([1]; 5 50 nM, 2′-5′ A4 500 nM transfected) | modulation of innate immunity biomarkers (RT-qPCR and ELISA) ([1]; MDA-MB-231) | weight changes compared to vehicle-treated mice (MDA-MB-231-Luc cells; over 42 days, NOD/SCID mice) | PDCD4 in lung nodule tissue sections (MDA-MB-231-Luc cells; q.o.d.) | hematoxylin and eosin (HE) staining of lung tissue (MDA-MB-231-Luc cells; q.o.d.) | mature miR-21 in lung nodule tissue (FISH) (MDA-MB-231-Luc cells; q.o.d.) | pre-miR-21 in lung nodule tissue (FISH) (MDA-MB-231-Luc cells; q.o.d.) | lung nodules / metastasis to lung (MDA-MB-231-Luc cells; q.o.d.) | lung nodules / metastasis to lung (MDA-MB-231-Luc cells; q.o.d., listed as Formula 5) | PDCD4 in lung nodule tissue sections (MDA-MB-231-Luc cells; q.o.d., listed as Formula 5) | mature miR-21 in lung nodule tissue (FISH) (MDA-MB-231-Luc cells; q.o.d., listed as Formula 5) | pre-miR-21 in lung nodule tissue (FISH) (MDA-MB-231-Luc cells; q.o.d., listed as Formula 5) | tolerability (MDA-MB-231-Luc cells; intraperitoneal injection, q.o.d.)
CCCN(CC(=O)N(CCC)CC(=O)N(CCC)CC(=O)N(CC(N)=O)Cc1cn(CCCNC(=O)CCCOc2ccc(-c3nc4cc(-c5ccc(N6CCN(C)CC6)cc5)ccc4[nH]3)cc2)nn1)C(=O)CNCc1cn(CCCNC(=O)CCCOc2ccc(-c3nc4cc(-c5ccc(N6CCN(C)CC6)cc5)ccc4[nH]3)cc2)nn1 [Compound 2] | Protection with compound is observed at U26 and U27 | decreased the invasive phenotype | – | – | – | – | – | – | – | – | – | – | – | – | – | – | – | – | – | –
CCCN(CC(=O)N(CCC)CC(=O)N(CCC)CC(=O)N(CC(=O)NCCOCCOCCOCCOc1ccc(C=C2SC(Nc3ccccc3)=C(C(=O)OCC)C2=O)cc1O)Cc1cn(CCCNC(=O)CCCOc2ccc(-c3nc4cc(-c5ccc(N6CCN(C)CC6)cc5)ccc4[nH]3)cc2)nn1)C(=O)CN(Cc1cn(CCCNC(=O)CCCOc2ccc(-c3nc4cc(-c5ccc(N6CCN(C)CC6)cc5)ccc4[nH]3)cc2)nn1)C(C)=O [Compound 5] | – | – | no activation of the innate antiviral immune response | 16 ± 3.8 pmol | 68 ± 6.7 pmol | 26 ± 2.5 | 26 mol | No upregulation | No significant changes were observed | did not cause significant weight changes | increased PDCD4 levels | decreased hematoxylin and eosin (HE) staining | decreased mature miR-21 | decreased | decreased lung nodules | inhibited breast cancer metastasis to lung | increase in PDCD4 protein expression | diminished | diminished | well tolerated

— patent publication US12617757B2, “Compounds and modules for inhibition of pre-miR-21 and their use in treatment of certain cancers” (University of Florida Research Foundation, Incorporated, priority 2019, dated 2026)
